Source: patent US10650228B2, “Devices and methods for analyzing animal behavior” (Children's Medical Center Corporation, priority 2015, dated 2020)

Experiments:
mice = assay: FTIR-generated paw luminance after intraplantar injection of capsaicin to the left hind paw; type: in vivo; conditions: 180 minutes after intraplantar injection (5 μl, 0.1%) to the left hind paw; FIG. 14B
Experimental: FIG. 14C illustrates that the luminance values of left and right hind paws are no different in naïve mice 0-30 minutes after being placed in chamber.

mouse = assay: FTIR imaging of weight bearing after experimental induction of inflammatory pain in the left hind paw; type: in vivo; conditions: mouse with induced inflammation in left hind paw, analgesic given before FTIR imaging; FIG. 8 at right
From the text: FIG. 8 illustrates examples of FTIR recordings that detect analgesic efficacy, with great sensitivity. […] For example, the FTIR images are brighter in areas where there is greater relative pressure exerted by the hind paw than in areas where there is less relative pressure exerted.

| Compound | FTIR paw luminance (weight bearing), uninjured right vs injected left hind paw (mice) | weight shift to the uninjured leg (FTIR imaging, analgesic efficacy) (mouse) |
| --- | --- | --- |
| COc1cc(CNC(=O)CCCC/C=C/C(C)C)ccc1O [capsaicin] | significantly increased luminance (weight bearing) in the uninjured (right) paw compared to the capsaicin-injected left paw | – |
| O=C(O)Cc1ccccc1Nc1c(Cl)cccc1Cl [diclofenac] | – | does not shift its weight to the uninjured leg |
